Measured values taken from patent publication US8735322B2, “Herbicides” (Syngenta Limited, priority 2008, dated 2014).

What was measured:
Type in all cases: in vivo
Setaria faberi (SETFA) [1] = test: Example B post-emergence herbicidal activity, glasshouse pot test; conditions: 312 h, rate 1000 g/ha, evaluated after 13 days, read-out: herbicidal damage SETFA (100=total damage to plant; 0=no damage to plant)
Protocol: (§1) Seeds of a variety of test species were sown in standard soil in pots. After cultivation for one day (pre-emergence) or after 8 days cultivation (post-emergence) under controlled conditions in a glasshouse (at 24/16° C., day/night; 14 hours light; 65% humidity), the plants were sprayed with an aqueous spray solution derived from the formulation of the technical active ingredient in acetone/water (50:50) solution containing 0.5% Tween 20 (polyoxyethelyene sorbitan monolaurate, CAS RN 9005-64-5). The test plants were then grown in a glasshouse under controlled conditions in a glasshouse (at 24/16° C., day/night; 14 hours light; 65% humidity) and watered twice daily. After 13 days for pre and post-emergence, the test was evaluated (100=total damage to plant; 0=no damage to plant). Alopecurus myosuroides (ALOMY), Avena fatua (AVEFA), Setaria faberi (SETFA), Echinochloa crus-galli (ECHCG), Solanum nigrum (SOLNI) and Amaranthus retroflexus (AMARE) Post-Emergence Activity

Solanum nigrum (SOLNI) [2] = test: as above; conditions: 312 h, rate 1000 g/ha, evaluated after 13 days, read-out: herbicidal damage SOLNI (100=total damage to plant; 0=no damage to plant)
Protocol: as §1

Avena fatua (AVEFA) [3] = test: as above; conditions: 312 h, rate 1000 g/ha, evaluated after 13 days, read-out: herbicidal damage AVEFA (100=total damage to plant; 0=no damage to plant)
Protocol: as §1

[4] = tested on: Echinochloa crus-galli (ECHCG); test: as above; conditions: 312 h, rate 1000 g/ha, evaluated after 13 days, read-out: herbicidal damage ECHCG (100=total damage to plant; 0=no damage to plant)
Protocol: as §1

[5] = tested on: Alopecurus myosuroides (ALOMY); test: as above; conditions: 312 h, rate 1000 g/ha, evaluated after 13 days, read-out: herbicidal damage ALOMY (100=total damage to plant; 0=no damage to plant)
Protocol: as §1

[6] = tested on: Amaranthus retroflexus (AMARE); test: as above; conditions: 312 h, rate 1000 g/ha, evaluated after 13 days, read-out: herbicidal damage AMARE (100=total damage to plant; 0=no damage to plant)
Protocol: as §1

Setaria faberi (SETFA) [7] = test: Example B pre-emergence herbicidal activity, glasshouse pot test; conditions: 312 h, rate 1000 g/ha, evaluated after 13 days, read-out: herbicidal damage SETFA (100=total damage to plant; 0=no damage to plant)
Protocol: as §1, with “Pre-Emergence” for “Post-Emergence”

Solanum nigrum (SOLNI) [8] = test: as above; conditions: 312 h, rate 1000 g/ha, evaluated after 13 days, read-out: herbicidal damage SOLNI (100=total damage to plant; 0=no damage to plant)
Protocol: as §1, with “Pre-Emergence” for “Post-Emergence”

Avena fatua (AVEFA) [9] = test: as above; conditions: 312 h, rate 1000 g/ha, evaluated after 13 days, read-out: herbicidal damage AVEFA (100=total damage to plant; 0=no damage to plant)
Protocol: as §1, with “Pre-Emergence” for “Post-Emergence”

[10] = tested on: Echinochloa crus-galli (ECHCG); test: as above; conditions: 312 h, rate 1000 g/ha, evaluated after 13 days, read-out: herbicidal damage ECHCG (100=total damage to plant; 0=no damage to plant)
Protocol: as §1, with “Pre-Emergence” for “Post-Emergence”

[11] = tested on: Alopecurus myosuroides (ALOMY); test: as above; conditions: 312 h, rate 1000 g/ha, evaluated after 13 days, read-out: herbicidal damage ALOMY (100=total damage to plant; 0=no damage to plant)
Protocol: as §1, with “Pre-Emergence” for “Post-Emergence”

[12] = tested on: Amaranthus retroflexus (AMARE); test: as above; conditions: 312 h, rate 1000 g/ha, evaluated after 13 days, read-out: herbicidal damage AMARE (100=total damage to plant; 0=no damage to plant)
Protocol: as §1, with “Pre-Emergence” for “Post-Emergence”

Structure (SMILES) | pest or weed control at 1000 g/ha (Setaria faberi (SETFA) [1]) [%] | pest or weed control at 1000 g/ha (Solanum nigrum (SOLNI) [2]) [%] | pest or weed control at 1000 g/ha (Avena fatua (AVEFA) [3]) [%] | pest or weed control at 1000 g/ha [4] [%] | pest or weed control at 1000 g/ha [5] [%] | pest or weed control at 1000 g/ha [6] [%] | pest or weed control at 1000 g/ha (Setaria faberi (SETFA) [7]) [%] | pest or weed control at 1000 g/ha (Solanum nigrum (SOLNI) [8]) [%] | pest or weed control at 1000 g/ha (Avena fatua (AVEFA) [9]) [%] | pest or weed control at 1000 g/ha [10] [%] | pest or weed control at 1000 g/ha [11] [%] | pest or weed control at 1000 g/ha [12] [%]
Cc1ccc(-c2ccc3c(c2)OCO3)cc1C1=C(O)CC(CC2CCOCC2)CC1=O (stereo not drawn) [Compound A-53] | 60 | 0 | 50 | 70 | 50 | 0 | 0 | 0 | 0 | 0 | 0 | 0
Cc1ccc(-c2ccc3c(c2)OCCO3)cc1C1=C(O)CC(CC2CCOCC2)CC1=O (stereo not drawn) [Compound A-54] | 0 | 0 | 0 | 70 | 0 | 0 | 0 | 0 | 10 | 0 | 60 | 0
Cc1ccc(-c2ccc(Cl)cc2)cc1C1=C(O)CC(CC2OCCCO2)CC1=O (stereo not drawn) [Compound A-55, 2-(4′-Chloro-4-methylbiphenyl-3-yl)-5-[1,3]dioxan-2-ylmethylcyclohexane-1,3-dione] | 100 | 0 | 90 | 100 | 90 | 0 | 60 | 0 | 20 | 60 | 0 | 0
Cc1ccc(-c2ccc(Cl)cc2)cc1C1=C(O)CC(CC2OCC(C)(C)CO2)CC1=O (stereo not drawn) [Compound A-56] | 90 | 0 | 0 | 100 | 80 | 0 | 70 | 0 | 0 | 0 | 20 | 0
CCC1(CC)COC(CC2CC(=O)C(c3cc(-c4ccc(Cl)cc4)ccc3C)=C(O)C2)OC1 (stereo not drawn) [Compound A-57] | 90 | 0 | 20 | 90 | 70 | 0 | 90 | 0 | 0 | 0 | 40 | 0
Cc1ccc(-c2ccc(Cl)cc2)cc1C1=C(O)CC(CC2OCC3(CCOCC3)O2)CC1=O (stereo not drawn) [Compound A-58] | 90 | 0 | 40 | 90 | 60 | 0 | 30 | 0 | 0 | 60 | 20 | 0
